Publication PMC4011845, “Stereoselectivity of Isoflurane in Adhesion Molecule Leukocyte Function-Associated Antigen-1” (PLoS ONE, 2014)

Experiments:
[1] = target: T1, leukocyte function-associated antigen-1 (LFA-1) (Homo sapiens, UniProt P20701); test: cell-free LFA-1:ICAM-1 binding assay ([…] 1-AMA); fluorescence probe on the αL I domain; type: biochemical
T1 construct: gene ITGAL; αL I domain residues 128-307 (fluorescence); with integrin β2 subunit (LFA-1 heterodimer)

[2] = target: T2, leukocyte function-associated antigen-1 (LFA-1) αL I domain (Homo sapiens, UniProt P20701); test: 1-aminoanthracene fluorescence displacement; supported by cell-based ICAM-1 binding inhibition
T2 construct: gene ITGAL; αL I domain wild type, residues 128-307 of the integrin αL subunit
T2 sequence (P20701 153-332): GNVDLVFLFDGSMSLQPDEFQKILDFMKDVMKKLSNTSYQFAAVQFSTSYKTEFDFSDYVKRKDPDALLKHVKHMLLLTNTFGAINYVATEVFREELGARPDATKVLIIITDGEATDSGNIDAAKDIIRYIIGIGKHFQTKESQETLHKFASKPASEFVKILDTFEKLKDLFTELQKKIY

T1 sequence (P20701 26-1090 limits assumed): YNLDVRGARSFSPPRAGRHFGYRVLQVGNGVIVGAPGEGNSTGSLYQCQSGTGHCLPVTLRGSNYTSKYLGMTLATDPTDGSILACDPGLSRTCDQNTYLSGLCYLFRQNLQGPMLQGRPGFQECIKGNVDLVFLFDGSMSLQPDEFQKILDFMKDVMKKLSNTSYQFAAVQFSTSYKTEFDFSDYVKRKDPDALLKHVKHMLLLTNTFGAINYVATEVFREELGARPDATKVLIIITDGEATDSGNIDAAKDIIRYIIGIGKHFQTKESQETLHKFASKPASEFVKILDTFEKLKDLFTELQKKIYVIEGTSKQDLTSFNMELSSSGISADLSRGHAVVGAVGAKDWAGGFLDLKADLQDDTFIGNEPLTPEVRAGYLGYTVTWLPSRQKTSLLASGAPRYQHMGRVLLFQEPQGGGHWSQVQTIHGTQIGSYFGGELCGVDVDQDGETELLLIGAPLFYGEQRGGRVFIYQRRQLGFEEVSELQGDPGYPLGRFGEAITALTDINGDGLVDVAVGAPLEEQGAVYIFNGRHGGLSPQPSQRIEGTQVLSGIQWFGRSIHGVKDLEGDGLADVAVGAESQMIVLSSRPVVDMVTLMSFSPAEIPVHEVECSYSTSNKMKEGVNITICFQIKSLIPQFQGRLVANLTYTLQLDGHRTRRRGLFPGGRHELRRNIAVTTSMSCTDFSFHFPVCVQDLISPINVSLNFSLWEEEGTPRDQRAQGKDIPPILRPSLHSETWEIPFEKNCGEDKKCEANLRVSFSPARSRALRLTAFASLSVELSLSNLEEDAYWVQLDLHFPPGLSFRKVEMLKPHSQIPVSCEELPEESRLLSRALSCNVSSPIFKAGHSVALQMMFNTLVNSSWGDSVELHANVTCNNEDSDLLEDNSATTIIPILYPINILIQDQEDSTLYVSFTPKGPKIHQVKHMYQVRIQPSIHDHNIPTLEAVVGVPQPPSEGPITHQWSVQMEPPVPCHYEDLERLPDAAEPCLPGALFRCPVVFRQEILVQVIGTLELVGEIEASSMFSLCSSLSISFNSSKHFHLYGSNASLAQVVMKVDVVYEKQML
T1 sequence (P05107 23-700 partner limits assumed): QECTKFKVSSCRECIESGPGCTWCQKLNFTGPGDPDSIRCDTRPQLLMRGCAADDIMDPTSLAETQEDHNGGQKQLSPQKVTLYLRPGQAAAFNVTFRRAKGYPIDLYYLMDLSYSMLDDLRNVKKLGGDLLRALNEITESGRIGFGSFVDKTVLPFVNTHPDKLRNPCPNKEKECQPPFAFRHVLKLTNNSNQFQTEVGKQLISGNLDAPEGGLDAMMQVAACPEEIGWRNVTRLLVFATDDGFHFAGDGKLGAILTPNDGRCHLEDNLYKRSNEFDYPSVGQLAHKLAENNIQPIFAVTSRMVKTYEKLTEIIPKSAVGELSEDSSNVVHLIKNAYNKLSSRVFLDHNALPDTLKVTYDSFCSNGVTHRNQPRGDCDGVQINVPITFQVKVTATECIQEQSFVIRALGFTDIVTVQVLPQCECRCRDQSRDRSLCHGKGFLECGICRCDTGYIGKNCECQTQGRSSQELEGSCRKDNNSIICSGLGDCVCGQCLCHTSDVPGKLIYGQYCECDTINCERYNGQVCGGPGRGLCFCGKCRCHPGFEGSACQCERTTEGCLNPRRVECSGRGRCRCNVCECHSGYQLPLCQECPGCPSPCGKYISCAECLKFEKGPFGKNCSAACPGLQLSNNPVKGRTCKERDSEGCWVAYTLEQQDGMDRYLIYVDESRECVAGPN

| SMILES | cell-free LFA-1:ICAM-1 binding assay (10-25 μM 1-AMA); fluorescence probe on the [1] | Kd [2] |
| --- | --- | --- |
| Nc1cccc2cc3ccccc3cc12 [1-AMA, 1-aminoanthracene] | As shown in Figure 2A , 1-AMA inhibited the binding of LFA-1 to its ligand ICAM-1. | – |
| FC(F)OC(Cl)C(F)(F)F (centres unmarked) [S-isoflurane] | – | 375 µM |
